Laboratory results reported in PubChem BioAssay (NCI).
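Cultured in 96-well plates, cells were exposed to test compound for 48 hours across five concentrations. GI50 marks 50% less growth. The concentration for full growth arrest is given as TGI.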

What was measured:
Experiment in all cases: growth of human tumour cells (NCI), 48 h
MDA-N = system: MDA-N
OVCAR-3 ovarian = system: OVCAR-3 ovarian
IGROV1 ovarian = system: IGROV1 ovarian
U251 CNS = system: U251 CNS
HT29 colon = system: HT29 colon
OVCAR-8 ovarian = system: OVCAR-8 ovarian
ACHN renal = system: ACHN renal
T-47D breast = system: T-47D breast
SF-268 CNS = system: SF-268 CNS
LOX IMVI melanoma = system: LOX IMVI melanoma
HCT-116 colon = system: HCT-116 colon
HCC-2998 colon = system: HCC-2998 colon
OVCAR-4 ovarian = system: OVCAR-4 ovarian

Compound	TGI (MDA-N) [µM]	TGI (OVCAR-3 ovarian) [µM]	TGI (IGROV1 ovarian) [µM]	TGI (U251 CNS) [µM]	TGI (HT29 colon) [µM]	TGI (OVCAR-8 ovarian) [µM]	TGI (ACHN renal) [µM]	TGI (T-47D breast) [µM]	TGI (SF-268 CNS) [µM]	TGI (LOX IMVI melanoma) [µM]	TGI (HCT-116 colon) [µM]	TGI (HCC-2998 colon) [µM]	TGI (OVCAR-4 ovarian) [µM]	GI50 (OVCAR-3 ovarian) [µM]	GI50 (IGROV1 ovarian) [µM]	GI50 (HT29 colon) [µM]	GI50 (OVCAR-8 ovarian) [µM]	GI50 (SF-268 CNS) [µM]	GI50 (HCC-2998 colon) [µM]
c1ccc2c(OCC3CO3)ccc(OCC3CO3)c2c1 (stereo not drawn)	13	6.75	16	6.32	17.5	10.4	6.48	15.4	12.1	2.08	2.76	24.1	21						
OC1OC(c2ccc[nH]2)C(F)(F)C(F)(F)C1(F)F (stereo not drawn)	> 100	> 100	> 100	> 100	> 100	> 100	> 100	> 100	> 100	> 100	> 100		> 100						
CC1=C/C(=N\N(C)C)C(C(O)(C(F)(F)F)C(F)(F)F)C(C)(C)C1 (stereo not drawn)	> 100	87.8	> 100	> 100	> 100	> 100	> 100	> 100	> 100	> 100	> 100	> 100	> 100						
CO[C@H]1C[C@@H]2CC[C@@H](C)[C@@](O)(O2)C(=O)C(=O)N2CCCC[C@H]2C(=O)O[C@H]([C@H](C)C[C@@H]2CC[C@@H](OC(=O)C(C)(CO)CO)[C@H](OC)C2)CC(=O)[C@H](C)/C=C(\C)[C@@H](O)[C@@H](OC)C(=O)[C@H](C)C[C@H](C)/C=C/C=C/C=C/1C	> 73.4	> 100	15.3	> 47.4	> 100	> 86.4	> 100	> 100	> 85.7	> 75.9	> 100	> 46.9		1.78	0.000946	0.182	< 0.0143	2.99	0.00154
O=C(O)c1ccccc1C(=O)OCC1CCCN2CCCCC12 (stereo not drawn)	> 100	> 100	> 100	> 100	> 100	> 100	> 100	> 100	> 100	> 100	> 100	> 100	> 100						
CC(C)[Si](OCC/C=C/C1CCC(=O)C1C(O)C1CCCCC1)(C(C)C)C(C)C (stereo not drawn)	36.4	30.9	28.5	30.9	26.2	28.8	27.9	33.7	24.7	32.7	28	23.2	38.6						
COCC1OCCN1C (stereo not drawn)	> 100	> 100	> 100	> 100	> 100	> 100	> 100	> 100	> 100	> 100	> 100		> 100						
CCN(CC)CCN1CCN=c2c3cc(OC)ccc3n3cnc4ccc1c2c43	1.79	3.26	2.45	2.74	1.81	2.26	3.61	23.3	2.54	1.07	2.84	2.13	1.26						
CC1=C(C(=O)OC23CC4CC(CC(C4)C2)C3)C(c2ccccc2OC(F)F)C(C(=O)OC23CC4CC(CC(C4)C2)C3)=C(C)N1 (stereo not drawn)	> 100	> 100	> 100	> 100	> 100	> 100		> 100	> 100	> 100	> 100	> 100	> 100						
COc1ccc2c(c1)-c1c(c3ccccc3n1CCN1CCCCC1)CC2	67.5	26.1	41.9	56.7	24.5	> 55.3	> 100	> 94.4	> 95.5	33.3	29.5	19.2	> 100						
c1ccc2c(c1)n1c(N3CCOCC3)[n+]3ccccc3c1c1c3cccc[n+]3c(N3CCOCC3)n21	> 100	> 100	> 100	> 100		> 100	> 100	> 100	68.2	> 100	> 100	> 100	> 100						
CCCOc1ccc(/C=C/C2=[N+](CCO)CCO2)cc1	> 100	> 100	> 100	> 100	> 100	> 100	> 100	> 100	> 100		> 100	> 100	> 100						
NC(=O)CC1(O)C=CC(=O)C=C1	> 100	> 100	> 100	> 100	> 100	> 100	> 100	> 100		> 100	> 100	> 100	> 100						
COC(=O)c1cccc(C)c1C1CN=NC12Cc1c(ccc(C)c1C)C2=O (stereo not drawn)	> 100	> 100	> 100	> 100	> 100	> 100	> 100	25.1	> 100	> 100	> 100	> 100	> 100						
CN(C)Cc1cc(C(=O)/C=C/c2c(Cl)cccc2Cl)cc(CN(C)C)c1O	12.7	23.6	21.8	23.4	11.6	15.2	12.4	42	32.4	4.45	19.6	34.7	24.8						
CC(=O)NNc1nc(C)c(C(/C=C/c2ccccc2O)=N/NC(=O)c2ccncc2)s1	> 100	> 100	> 100	> 100	> 100	> 100	> 100	> 100	> 100	> 100	> 100	> 100	> 100						
C#CCOC(=O)C(N)CS (stereo not drawn)	> 100	> 100	> 100	> 100	> 100	> 100	> 100	> 100	> 100	> 100	> 100								

Compound	TGI (MDA-N) [µM]	TGI (OVCAR-3 ovarian) [µM]	TGI (IGROV1 ovarian) [µM]	TGI (U251 CNS) [µM]	TGI (HT29 colon) [µM]	TGI (OVCAR-8 ovarian) [µM]	TGI (ACHN renal) [µM]	TGI (T-47D breast) [µM]	TGI (SF-268 CNS) [µM]	TGI (LOX IMVI melanoma) [µM]	TGI (HCT-116 colon) [µM]	TGI (HCC-2998 colon) [µM]	TGI (OVCAR-4 ovarian) [µM]	GI50 (OVCAR-3 ovarian) [µM]	GI50 (IGROV1 ovarian) [µM]	GI50 (HT29 colon) [µM]	GI50 (OVCAR-8 ovarian) [µM]	GI50 (SF-268 CNS) [µM]	GI50 (HCC-2998 colon) [µM]
NC(=Nc1ccc(Cl)c(Cl)c1)c1ccccc1N	53.4	> 100	97.9	> 100	> 100	> 100	> 100		> 100	69.3	57.1	34.2	> 100						
CCC/C(Cl)=N\OC(=O)Nc1ccc(Br)cc1	27.3	16.3	32.8	32.1	44.1	28.9	20.3	25.2	46.2	10.6	26.2	32.9	48.2						
C=CCN1C(=O)N/C(=C\c2ccc(Cl)cc2)C1=O	> 100	> 100	> 100	> 100	> 100	> 100	> 100	> 100	> 100	> 100	> 100		> 100						
O=C(n1[nH]c(=O)n(-c2ccc([N+](=O)[O-])cc2)c1=O)C(Cl)(Cl)Cl	> 75	> 75	> 75	> 75	> 75	> 75	> 75	> 75	> 75	> 75	> 75	> 75	> 75						
COc1ccc2cc(CNCCCN3CCN(CCCNCc4ccc5cc(OC)ccc5c4)CC3)ccc2c1	2.78	3.02	3.12	3.13	1.65	3.21	3.19	3.19	3.32	1.48	2.56	0.643	3.48						
C=CCNC(NCC=C)=C(C(Cl)=C(Cl)Cl)[N+](=O)[O-]	> 100	> 100		> 100	> 100	31.2	> 100	> 100	> 100		> 100	> 100	> 100						
Clc1cccc(Cl)c1C1SCc2nc3cc4ccccc4cc3n21 (stereo not drawn)	> 100	> 100	> 100	> 100	> 100	> 100	> 100	> 100	> 100		> 100	> 100	> 100						
CC(C)CC(NC(=O)OCc1ccccc1)C(=O)NCCCCC(N)C(=O)NC(CCCCNC(=O)C(CC(C)C)NC(=O)OCc1ccccc1)C(=O)NC(CCCCNC(=O)C(CC(C)C)NC(=O)OCc1ccccc1)C(=O)NC(CCCCNC(=O)C(CC(C)C)NC(=O)OCc1ccccc1)C(=O)NC(CCCCNC(=O)C(CC(C)C)NC(=O)OCc1ccccc1)C(=O)NC(CCCCNC(=O)C(CC(C)C)NC(=O)OCc1ccccc1)C(=O)O (stereo not drawn)	> 100	> 100	> 100	> 100	> 100	> 100	> 100	> 100		> 100	> 100	> 100	> 100						
C=C1[C@H](OCC(C)C)[C@@H](OCC(C)C)[C@@H](O)C(C)(C)/C=C/[C@H](C)C(=O)[C@@]2(O)C[C@H](C)[C@H](O)[C@@H]2[C@H]1OCC(C)C	> 7.5	> 7.5		> 7.5		> 7.5	> 7.5	> 7.5	> 7.5	> 7.5	> 7.5	> 7.5	> 7.5						
CC(C(O)c1ccccc1)N(C)/N=N/c1nc2c([nH]1)c(=O)n(C)c(=O)n2C (stereo not drawn)	> 100	> 100	> 100	> 100	> 100	> 100	> 100	> 100	> 100		> 100	> 100	> 100						
CCOC(=O)c1c(-c2ccc(Cl)cc2)c(C#N)c(=S)n(C2OC(CO)C(O)C(O)C2O)c1-c1ccccc1 (stereo not drawn)	49.9	37.9	> 100	32	36.2		> 100	54.4	55.9	33.5	35.3	81.9	> 100						
COC(=O)C1=C(C(=O)OC)C(C(=O)c2ccccc2)N2N=C(c3ccc(Cl)cc3)C=CC12 (stereo not drawn)	> 100	> 100		> 100	> 100	> 100	> 100	> 100	> 100	> 100	> 100	> 100	> 100						
COC(=O)CC1CN(C(=O)OCc2ccccc2)C(C)(C)O1 (stereo not drawn)	> 100	> 100	> 100	> 100		> 100	> 100			> 100	> 100	> 100	> 100						
CNC(=O)C(C)NC(=O)C(Cc1ccccc1)NC(=O)OC(C)(C)C (stereo not drawn)	> 100	> 100	> 100	> 100	> 100	> 100	> 100	> 100	> 100	> 100	> 100	> 100							
Cn1c(=S)[nH]c2c(Cl)cc(Cl)cc2c1=O	> 100	> 100	> 100	> 100		> 100	> 100		> 100	> 100	> 100	> 100	> 100						
Cc1ccc(-c2cnc(NC3OC(COC(=O)c4ccccc4)C(OC(=O)c4ccccc4)C(OC(=O)c4ccccc4)C3OC(=O)c3ccccc3)s2)cc1 (stereo not drawn)	> 100	> 100	> 100	> 100	> 100	> 100	> 100	> 100	> 100	> 100	> 100		> 100						
